Assay results published in publication PMC5770468, “Cardiac glycoside/aglycones inhibit HIV-1 gene expression by a mechanism requiring MEK1/2-ERK1/2 signaling” (Scientific Reports, 2018).

Key:
[1] = test system: host alternative RNA splicing; set-up: method as in PMID 22456266; settings: of 8,175 analyzed, cited from earlier work
[2] = test system: clinical strains of HIV; set-up: method as in PMID 23555254, PMID 17706876; settings: cited from earlier work
[3] = test system: HIV-1 Gag expression; test: HIV-1 Gag-GFP expression in HeLa rtTA-HIV(Gag-GFP) cells; assay type: cell-based; settings: 220 nM
Protocol: Figure 7 Activation of the MEK1/2-ERK1/2 signaling pathway suppresses HIV-1 gene expression. HeLa rtTA-HIV(Gag-GFP) cells were pre-treated overnight (~15 h) with/without an inhibitor of MEK1/2 (12 μM U0126, MEKi, white), p38α/β/β2 (15 μM SB203580, p38i, light gray), JNK1/2/3 (1.25 μM SP600125, JNKi, hatched), or NCX (5 μM KB-R7943, NCXi, gray) and treated with a MEK1/2-ERK1/2 activator, anisomycin, to isolate the pathway signal as described (and run in parallel for verification of inhibitor activity) in Figures 6 and 5d–f. Cells were monitored for HIV-1 gene expression by detecting Gag-GFP fluorescence in cell lysates (35 μg) resolved on reducing SDS-PAGE, levels of ERK activation by immunoblotting of phospho- and total-ERK from cell lysates, and extent of viral RNA expression by qRT-PCR of mRNAs extracted. […] RNAs were quantified by qRT-PCR as described in Figures 4a,b. […]
Using the same methods and conditions described for HeLa rtTA-HIV-ΔMls cells, HeLa rtTA-HIV(Gag-GFP) cells were seeded in 48-/12-well plates and pretreated with/without pathway inhibitor prior to treatment with drug/compounds and Dox. […] HIV-1 gene expression was determined by detecting Gag-GFP fluorescence in cells by plate scans using a Typhoon Imager 9400 (Amersham Biosciences) or Typhoon FLA 9400 (GE) on ImageQuant, cell lysates by SDS-PAGE captured on ChemiDoc MP, or cell lysates by p24^CA ELISA. […]

[4] = test system: ERK1/2; test: ERK1/2 activation (phospho/total) by western blot in HeLa rtTA-HIV(Gag-GFP) cells; assay type: cell-based, human; settings: relative to DMSO (+)
Protocol: Figure 6 CSs control HIV-1 gene expression through intracellular signaling. HeLa rtTA-HIV(Gag-GFP) cells were pre-treated with/without pathway inhibitor overnight (~15 h) and treated with ~IC80s of CSs. […] (a–c) ERK1/2, MK-2, and JNK1/2/3 are activated upon treatment of cells with CSs (n ≥ 4–6, 3–4, and 3–6, resp., mean, s.e.m.). Graphs quantifying the activation level (phospho/total protein) of each MAP/MAPK by western blot. In (a), the results of pre-treating cells with a MEK1/2 inhibitor (12 μM U0126, MEKi) on ERK1/2 activation is also shown and a representative immunoblot is provided in Supplementary Figure S9c. (d) Representative immunoblots of MAP/MAPK activation levels from (a–c). (e–g) MEK1/2 activation may be involved in CS inhibition of HIV-1 gene expression. The signaling pathway(s) used by a CS to inhibit HIV-1 expression was determined by detecting Gag-GFP fluorescence in cell lysates (~35 μg) by reducing SDS-PAGE after pre-treatment of cells with a MEK1/2 (12 μM U0126, white), p38α/β/β2 (15 μM SB203580/p38i, gray), or JNK1/2/3 (1.25 μM SP600125/JNKi, hatched) inhibitor (n ≥ 5–7, 4–8, and 3–7, resp., mean, s.e.m.). Results were shown relative to DMSO (+). […]
Figure 7 Activation of the MEK1/2-ERK1/2 signaling pathway suppresses HIV-1 gene expression. […] RNAs were quantified by qRT-PCR as described in Figures 4a,b. […]

C[C@H]1O[C@@H](O[C@H]2[C@@H](O)C[C@H](O[C@H]3[C@@H](O)C[C@H](O[C@H]4CC[C@@]5(C)[C@H](CC[C@@H]6[C@@H]5CC[C@]5(C)[C@@H](C7=CC(=O)OC7)CC[C@]65O)C4)O[C@@H]3C)O[C@@H]2C)C[C@H](O)[C@@H]1O [Digitoxin]
host splicing events affected ([1]; q-value = 0, sepscore ≥ 1.0): 1681 events
host splicing events affected, share of analyzed [1]: ~ 20.6%

C[C@H]1O[C@@H](O[C@H]2[C@@H](O)C[C@H](O[C@H]3[C@@H](O)C[C@H](O[C@H]4CC[C@@]5(C)[C@H](CC[C@@H]6[C@@H]5C[C@@H](O)[C@]5(C)[C@@H](C7=CC(=O)OC7)CC[C@]65O)C4)O[C@@H]3C)O[C@@H]2C)C[C@H](O)[C@@H]1O [Digoxin]
effective ex vivo concentration, fold below serum concentration of patients treated for heart conditions (digoxin) [2]: 2–6 fold

COc1ccc(C[C@H]2NC[C@H](O)[C@H]2OC(C)=O)cc1 [anisomycin, Anisomycin]
HIV-1 Gag expression [3]: inhibited
ERK1/2 activation [4]: activated
